Results published in ChEMBL document CHEMBL5696442, “Discovery of type II inhibitors of TGFβ-activated kinase 1 (TAK1) and mitogen-activated protein kinase kinase kinase kinase 2 (MAP4K2)” (J Med Chem, 2015).
The source made the active and inactive calls. No cut-off for these calls is given here.

Experiments:
[1] = target: Aurora kinase B (Homo sapiens) (UniProt Q96GD4); experiment: Inhibition of AurB ATP labeling site in human Huh-7 cell lysate at 1 uM by KiNativ Profiling analysis relative to control; assay type: subcellular
[2] = target: STE20-like serine/threonine-protein kinase (Homo sapiens) (UniProt Q9H2G2); experiment: Inhibition of SLK Lys1 labeling site in human Huh-7 cell lysate at 1 uM by KiNativ Profiling analysis relative to control; assay type: subcellular
[3] = target: Mitogen-activated protein kinase kinase kinase 4 (Homo sapiens) (UniProt Q9Y6R4); experiment: Inhibition of MAP3K4 Lys2 labeling site in human Huh-7 cell lysate at 1 uM by KiNativ Profiling analysis relative to control; assay type: subcellular
[4] = target: T1, Phosphatidylinositol 5-phosphate 4-kinase type-2 alpha (Homo sapiens) (UniProt P48426); experiment: Inhibition of PIP4K2A ATP labeling site harbouring AKELPTLKDNDFINEGQK in human Huh-7 cells at 1 uM by KiNativ Profiling analysis relative to control; assay type: cell-based
T1 sequence (whole entry): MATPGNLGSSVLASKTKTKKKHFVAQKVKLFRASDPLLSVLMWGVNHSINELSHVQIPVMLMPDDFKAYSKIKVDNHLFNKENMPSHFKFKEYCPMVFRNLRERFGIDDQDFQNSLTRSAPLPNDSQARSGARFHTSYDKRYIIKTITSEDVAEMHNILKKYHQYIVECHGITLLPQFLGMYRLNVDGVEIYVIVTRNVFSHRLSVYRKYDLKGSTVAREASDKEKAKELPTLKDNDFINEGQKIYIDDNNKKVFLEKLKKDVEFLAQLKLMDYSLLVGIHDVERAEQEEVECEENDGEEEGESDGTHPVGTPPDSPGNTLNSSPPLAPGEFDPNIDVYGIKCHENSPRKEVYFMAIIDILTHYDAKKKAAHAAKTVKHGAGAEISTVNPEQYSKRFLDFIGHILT

[5] = target: Misshapen-like kinase 1 (Homo sapiens) (UniProt Q8N4C8); experiment: Inhibition of ZC3/MINK Lys2 labeling site in human Huh-7 cells at 1 uM by KiNativ Profiling analysis relative to control; assay type: cell-based
[6] = target: Interleukin-1 receptor-associated kinase 1 (Homo sapiens) (UniProt P51617); experiment: Inhibition of IRAK1 Lys2 labeling site in human Huh-7 cell lysate at 1 uM by KiNativ Profiling analysis relative to control; assay type: subcellular
[7] = target: Serine/threonine-protein kinase 26 (Homo sapiens) (UniProt Q9P289); experiment: Inhibition of MST4 Lys2 labeling site in human Huh-7 cell lysate at 1 uM by KiNativ Profiling analysis relative to control; assay type: subcellular
[8] = Inhibition of MARK2/3 K2 labeling site in human Huh-7 cells at 10 uM by KiNativ Profiling analysis relative to control; details: condition cancer
[9] = target: Dual specificity mitogen-activated protein kinase kinase; MEK1/2 (Homo sapiens) (UniProt P36507+Q02750); experiment: Inhibition of MAP2K1/2 K2 labeling site in human Huh-7 cells at 10 uM by KiNativ Profiling analysis relative to control; assay type: cell-based
[10] = target: Serine/threonine-protein kinase TNNI3K (Homo sapiens) (UniProt Q59H18); experiment: Inhibition of TNNI3K (unknown origin) at 10 uM by Ambit Kinomescan binding assay relative to control; values are per cent of control
[11] = target: Proto-oncogene tyrosine-protein kinase ROS (Homo sapiens) (UniProt P08922); experiment: Inhibition of ROS1 (unknown origin) at 10 uM by Ambit Kinomescan binding assay
[12] = target: T2, Atrial natriuretic peptide receptor 2 (Homo sapiens) (UniProt P20594); experiment: Inhibition of ANPb Lys2 labeling site in human A-375 cells at 0.5 uM by KiNativ Profiling analysis relative to control; assay type: cell-based
T2 sequence (whole entry): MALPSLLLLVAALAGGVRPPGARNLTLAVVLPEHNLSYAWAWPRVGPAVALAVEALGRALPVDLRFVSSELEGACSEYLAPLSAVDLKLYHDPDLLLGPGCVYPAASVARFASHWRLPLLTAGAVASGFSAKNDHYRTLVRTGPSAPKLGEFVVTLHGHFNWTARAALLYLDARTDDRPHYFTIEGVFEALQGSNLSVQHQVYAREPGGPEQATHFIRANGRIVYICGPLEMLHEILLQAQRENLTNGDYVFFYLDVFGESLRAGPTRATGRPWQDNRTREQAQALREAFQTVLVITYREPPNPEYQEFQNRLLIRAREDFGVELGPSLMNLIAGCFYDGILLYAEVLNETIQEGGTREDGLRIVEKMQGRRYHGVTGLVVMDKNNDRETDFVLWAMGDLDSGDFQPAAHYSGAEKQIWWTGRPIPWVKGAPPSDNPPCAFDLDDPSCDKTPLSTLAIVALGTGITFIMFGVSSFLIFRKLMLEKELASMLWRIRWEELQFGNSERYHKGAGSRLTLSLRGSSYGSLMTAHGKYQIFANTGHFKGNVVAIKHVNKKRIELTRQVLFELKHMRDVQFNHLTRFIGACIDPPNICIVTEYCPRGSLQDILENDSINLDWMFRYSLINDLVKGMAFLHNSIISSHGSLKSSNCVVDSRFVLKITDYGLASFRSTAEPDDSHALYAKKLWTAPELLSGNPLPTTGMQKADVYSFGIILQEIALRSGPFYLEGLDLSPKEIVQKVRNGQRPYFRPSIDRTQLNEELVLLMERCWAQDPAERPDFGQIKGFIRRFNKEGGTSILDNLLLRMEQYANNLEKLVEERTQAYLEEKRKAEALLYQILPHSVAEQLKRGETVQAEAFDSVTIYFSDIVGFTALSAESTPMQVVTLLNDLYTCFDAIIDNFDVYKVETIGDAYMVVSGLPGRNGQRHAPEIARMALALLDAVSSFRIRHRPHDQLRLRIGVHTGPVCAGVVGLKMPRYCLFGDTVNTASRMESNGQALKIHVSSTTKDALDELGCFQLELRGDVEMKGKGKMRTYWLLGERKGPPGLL

Ephrin type-A receptor 2 = Ephrin type-A receptor 2 (Homo sapiens, UniProt P29317); experiment: Inhibition of EphA2 ACT labeling site in human A-375 cells at 0.05 uM by KiNativ Profiling analysis relative to control; assay type: cell-based
[13] = target: Tyrosine-protein kinase ABL2 (Homo sapiens, UniProt P42684); experiment: Inhibition of ABL2 (unknown origin) at 1 uM by Ambit Kinomescan binding assay relative to control; values are per cent of control
[14] = target: Macrophage colony-stimulating factor 1 receptor (Homo sapiens) (UniProt P07333); experiment: Inhibition of CSF1R (unknown origin) at 1 uM by Ambit Kinomescan binding assay relative to control; values are per cent of control

Ephrin type-A receptor 2, sequence (P29317 whole entry): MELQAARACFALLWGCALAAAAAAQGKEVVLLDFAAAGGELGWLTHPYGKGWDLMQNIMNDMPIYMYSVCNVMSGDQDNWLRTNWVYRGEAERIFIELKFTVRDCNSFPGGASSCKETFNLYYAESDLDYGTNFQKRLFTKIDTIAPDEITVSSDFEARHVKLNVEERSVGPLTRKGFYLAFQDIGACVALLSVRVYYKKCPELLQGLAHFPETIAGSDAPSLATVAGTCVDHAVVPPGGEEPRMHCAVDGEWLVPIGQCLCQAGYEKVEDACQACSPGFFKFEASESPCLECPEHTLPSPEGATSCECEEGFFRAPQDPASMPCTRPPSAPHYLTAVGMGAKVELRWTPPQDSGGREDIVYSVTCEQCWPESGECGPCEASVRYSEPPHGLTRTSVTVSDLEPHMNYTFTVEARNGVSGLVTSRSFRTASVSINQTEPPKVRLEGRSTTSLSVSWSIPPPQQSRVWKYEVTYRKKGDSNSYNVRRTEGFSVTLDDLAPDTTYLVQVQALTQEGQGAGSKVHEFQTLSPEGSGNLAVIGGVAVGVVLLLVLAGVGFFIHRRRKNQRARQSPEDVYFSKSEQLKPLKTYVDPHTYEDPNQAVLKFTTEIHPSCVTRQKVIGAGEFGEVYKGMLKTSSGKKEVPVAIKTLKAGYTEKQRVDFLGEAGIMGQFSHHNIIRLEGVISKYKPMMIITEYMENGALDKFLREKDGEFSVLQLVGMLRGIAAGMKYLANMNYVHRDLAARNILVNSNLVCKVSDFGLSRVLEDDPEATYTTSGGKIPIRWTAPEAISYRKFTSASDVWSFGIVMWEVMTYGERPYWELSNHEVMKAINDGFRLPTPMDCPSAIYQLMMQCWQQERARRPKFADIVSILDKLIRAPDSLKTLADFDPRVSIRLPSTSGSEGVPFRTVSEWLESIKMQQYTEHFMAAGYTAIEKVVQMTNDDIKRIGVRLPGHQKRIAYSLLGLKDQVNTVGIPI
Interleukin-1 receptor-associated kinase 1 (Homo sapiens), sequence (P51617 whole entry, looked up): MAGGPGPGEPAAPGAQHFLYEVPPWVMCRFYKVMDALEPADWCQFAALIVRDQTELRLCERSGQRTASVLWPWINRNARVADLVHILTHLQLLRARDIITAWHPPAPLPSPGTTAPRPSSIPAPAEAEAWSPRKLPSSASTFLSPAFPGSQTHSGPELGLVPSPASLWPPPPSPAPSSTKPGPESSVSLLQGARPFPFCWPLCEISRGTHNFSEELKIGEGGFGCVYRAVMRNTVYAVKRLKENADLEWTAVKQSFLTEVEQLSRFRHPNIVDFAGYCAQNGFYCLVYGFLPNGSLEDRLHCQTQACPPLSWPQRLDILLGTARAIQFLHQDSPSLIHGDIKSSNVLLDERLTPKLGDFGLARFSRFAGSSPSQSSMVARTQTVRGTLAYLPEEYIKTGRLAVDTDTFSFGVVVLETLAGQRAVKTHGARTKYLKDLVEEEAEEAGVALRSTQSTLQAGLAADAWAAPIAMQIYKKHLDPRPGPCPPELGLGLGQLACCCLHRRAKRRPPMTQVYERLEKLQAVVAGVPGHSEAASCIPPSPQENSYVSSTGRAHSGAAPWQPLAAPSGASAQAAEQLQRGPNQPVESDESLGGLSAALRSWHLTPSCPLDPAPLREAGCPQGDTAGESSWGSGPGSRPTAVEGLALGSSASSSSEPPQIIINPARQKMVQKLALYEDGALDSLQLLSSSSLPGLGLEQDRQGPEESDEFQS
Aurora kinase B (Homo sapiens), sequence (Q96GD4 whole entry): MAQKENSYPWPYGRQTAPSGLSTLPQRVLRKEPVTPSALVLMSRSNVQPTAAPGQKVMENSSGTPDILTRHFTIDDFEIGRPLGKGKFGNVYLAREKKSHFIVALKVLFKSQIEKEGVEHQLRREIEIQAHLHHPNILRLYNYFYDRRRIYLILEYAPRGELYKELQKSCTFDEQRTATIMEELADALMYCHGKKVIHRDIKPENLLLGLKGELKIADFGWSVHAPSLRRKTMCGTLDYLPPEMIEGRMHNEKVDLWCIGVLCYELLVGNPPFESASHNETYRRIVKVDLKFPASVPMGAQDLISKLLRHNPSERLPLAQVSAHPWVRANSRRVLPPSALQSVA
Serine/threonine-protein kinase TNNI3K (Homo sapiens), sequence (Q59H18 whole entry): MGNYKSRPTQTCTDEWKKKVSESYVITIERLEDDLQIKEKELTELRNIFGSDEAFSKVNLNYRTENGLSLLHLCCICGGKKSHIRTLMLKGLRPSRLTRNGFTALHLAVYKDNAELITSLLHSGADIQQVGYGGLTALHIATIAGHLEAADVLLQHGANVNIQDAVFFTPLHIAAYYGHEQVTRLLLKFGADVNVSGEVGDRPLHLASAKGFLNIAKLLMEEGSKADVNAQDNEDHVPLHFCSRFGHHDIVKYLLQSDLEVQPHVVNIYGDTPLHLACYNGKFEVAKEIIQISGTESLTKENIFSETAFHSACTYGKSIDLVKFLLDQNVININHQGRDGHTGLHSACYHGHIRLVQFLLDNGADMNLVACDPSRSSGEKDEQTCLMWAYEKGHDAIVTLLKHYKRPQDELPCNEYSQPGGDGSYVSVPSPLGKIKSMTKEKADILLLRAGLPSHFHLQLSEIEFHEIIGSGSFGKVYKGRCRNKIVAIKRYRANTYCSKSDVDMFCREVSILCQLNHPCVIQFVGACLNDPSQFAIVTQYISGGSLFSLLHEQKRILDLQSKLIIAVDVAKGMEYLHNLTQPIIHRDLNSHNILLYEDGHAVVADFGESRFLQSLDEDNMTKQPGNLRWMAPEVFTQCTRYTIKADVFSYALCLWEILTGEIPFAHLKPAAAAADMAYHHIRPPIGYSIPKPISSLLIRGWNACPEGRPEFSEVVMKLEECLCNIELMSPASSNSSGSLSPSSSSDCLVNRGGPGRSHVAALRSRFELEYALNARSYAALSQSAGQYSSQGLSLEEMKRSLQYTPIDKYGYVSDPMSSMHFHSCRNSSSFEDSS
Serine/threonine-protein kinase 26 (Homo sapiens), sequence (Q9P289 2-416 limits assumed): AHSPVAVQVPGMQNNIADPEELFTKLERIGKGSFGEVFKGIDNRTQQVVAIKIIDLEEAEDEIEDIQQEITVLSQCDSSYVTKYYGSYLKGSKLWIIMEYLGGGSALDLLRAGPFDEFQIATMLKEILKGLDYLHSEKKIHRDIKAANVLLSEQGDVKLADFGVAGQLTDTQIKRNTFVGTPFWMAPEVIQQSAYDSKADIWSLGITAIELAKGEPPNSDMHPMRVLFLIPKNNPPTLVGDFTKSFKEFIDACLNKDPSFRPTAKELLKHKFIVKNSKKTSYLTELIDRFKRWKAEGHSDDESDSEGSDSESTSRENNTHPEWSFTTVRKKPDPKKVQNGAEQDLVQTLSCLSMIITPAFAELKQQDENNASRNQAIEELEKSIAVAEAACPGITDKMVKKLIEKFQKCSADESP
Tyrosine-protein kinase ABL2, sequence (P42684 whole entry): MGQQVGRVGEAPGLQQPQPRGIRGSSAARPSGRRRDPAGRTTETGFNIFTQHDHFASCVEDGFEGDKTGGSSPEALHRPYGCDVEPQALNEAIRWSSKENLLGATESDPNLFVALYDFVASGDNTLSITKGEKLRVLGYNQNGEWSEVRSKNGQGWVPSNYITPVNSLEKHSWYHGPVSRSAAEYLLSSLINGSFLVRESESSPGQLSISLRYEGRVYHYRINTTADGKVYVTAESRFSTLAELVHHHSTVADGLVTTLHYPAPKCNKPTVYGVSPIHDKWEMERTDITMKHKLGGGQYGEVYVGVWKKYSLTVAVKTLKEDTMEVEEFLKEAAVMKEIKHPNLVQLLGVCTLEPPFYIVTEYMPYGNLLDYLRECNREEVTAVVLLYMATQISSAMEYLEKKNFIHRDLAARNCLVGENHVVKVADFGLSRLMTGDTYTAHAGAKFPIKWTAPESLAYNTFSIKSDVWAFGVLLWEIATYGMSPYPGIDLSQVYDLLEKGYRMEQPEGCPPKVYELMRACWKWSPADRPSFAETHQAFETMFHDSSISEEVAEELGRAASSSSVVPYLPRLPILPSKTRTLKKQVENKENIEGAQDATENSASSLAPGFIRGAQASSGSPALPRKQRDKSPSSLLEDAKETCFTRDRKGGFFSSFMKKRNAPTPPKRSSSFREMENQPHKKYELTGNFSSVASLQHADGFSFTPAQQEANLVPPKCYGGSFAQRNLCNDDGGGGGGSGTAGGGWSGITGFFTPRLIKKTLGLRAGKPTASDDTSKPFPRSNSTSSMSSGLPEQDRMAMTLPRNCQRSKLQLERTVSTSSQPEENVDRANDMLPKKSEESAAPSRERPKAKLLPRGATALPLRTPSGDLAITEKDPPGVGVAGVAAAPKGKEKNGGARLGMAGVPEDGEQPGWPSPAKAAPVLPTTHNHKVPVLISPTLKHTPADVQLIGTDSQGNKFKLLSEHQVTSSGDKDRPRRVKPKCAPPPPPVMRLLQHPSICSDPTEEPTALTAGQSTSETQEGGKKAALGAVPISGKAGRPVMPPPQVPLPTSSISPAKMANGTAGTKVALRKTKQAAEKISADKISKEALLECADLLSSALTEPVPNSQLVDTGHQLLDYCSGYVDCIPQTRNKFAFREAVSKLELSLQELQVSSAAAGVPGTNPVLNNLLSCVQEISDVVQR

Work on `CNc1cc(Oc2cc(C(=O)Nc3cc(N4CCN(C)CC4)cc(C(F)(F)F)c3)ccc2C)ncn1` yielded an inhibition [1] of 2.5%, an inhibition [2] of 3.9% and an inhibition [3] of 0.5%. It also gave an inhibition [4] of 13.4%, an inhibition [5] of 9.7% and an inhibition [6] of -6.9%. The inhibition [7] was -0.3%.

With `CCN1CCN(Cc2ccc(NC(=O)c3ccc(C)c(Oc4ccnc5[nH]ccc45)c3)cc2C(F)(F)F)CC1` the inhibition at 10 µM [8] was 11.8%, the inhibition [9] was 14.4% and the residual activity [10] was 4.8%. The inhibition [11] was “inactive” and the inhibition [12] was -9.4%.

In the case of `CCN1CCN(Cc2ccc(NC(=O)c3ccc(C)c(/C=C/c4cnc5[nH]ccc5c4OC)c3)cc2C(F)(F)F)CC1`, the inhibition (Ephrin type-A receptor 2) is reported as 83.7%, the % of control [13] is reported as 0.7% and the residual activity [14] is reported as 0.75%.
